Experimental data taken from patent US20050202423A1, “Method for identifying compounds or lead structures against rna target motifs and rna/protein interactions” (priority 2000, published 2005).
Read-outs that look alike come from different tables or passages of the source.

Key:
reverse transcriptase = reverse transcriptase (Human immunodeficiency virus type 1 group M subtype B, UniProt P04585); assay: Standard transcriptase assay (specificity control); type: biochemical, HIV-1; details: 2.5 μM
Protocol: As a control of the target protein reverse transcriptase, another nucleic acid binding protein from HIV-1 was tested, to check the specificity of the identified Rev-binding antibiotics.

Rev protein [1] = biological target: T1, Rev protein (Human immunodeficiency virus type 1 group M subtype B, UniProt P04618); assay: Surface plasmon resonance, Rev protein; type: binding, HIV; details: 100 μM antibiotic, 25° C.
T1 construct: the intact Rev protein and by the Rev peptide
Protocol: (§1) 20 μl 100 μM antibiotic in test buffer was injected at 25° C., rate 10 μl/s.
(§2) Surface plasmon resonance studies were performed with a Biocore 3000 instrument in the automatic mode.

Rev peptide / AIR = biological target: T2, Rev peptide / AIR (Human immunodeficiency virus type 1 group M subtype B, UniProt P04618); assay: AIR screen (screen 2) of antibiotics: inhibition of Rev-activated AIR; type: biochemical, HIV; details: for AIR screen outcome (inhibition of AIR relative to HHR): 100 μM antibiotic, 250 nM Rev peptide
T2 construct: includes aminoacids 34 to 50 of the Rev protein
Protocol: (§3) Cleavage reactions with multiple turnover were performed at 32° C. in a test buffer containing 50 mM Tris (pH 7.9) and 25 mM NaCl. The total volume of the reactions was 50 μl in plates with 96 flat bottom wells. The fluorescence measurements were performed at an excitation wavelength of 489 nm, FAM emission at 520 nm and with the fluorescence detector Ascent Fluoroscan FL, as described by Jenne, A. et al., Rapid identification and characterization of hammerhead-ribozyme inhibitors using fluorescence-based technology, Nat Biotechnol 19, 56-61 (2001). Ribozyme (10 nM) and FRET-labeled substrate (200 nM) were first incubated in test buffer at room temperature for 5 min, followed by optional addition of Rev and/or antibiotic. The reactions were then incubated for 5 min at 32° C. and started by the addition of MgCl2 to a final concentration of 8 mM, using the dispensing function of the fluorometer. Negative controls were always included for reactions without ribozyme and were subtracted after the measurements.
(§4) Two different screening experiments were performed, one using the RRR reporter construct and the other using AIR. […] Each reaction which contained antibiotics also contained Rev peptide. For each antibiotic, three different reactions were performed: HHR, reporter construct (RRR or AIR), negative controls, which only contained antibiotic and Rev and substrate. The antibiotic concentrations were 100 μM in each case. After subtraction of the negative control, the rise in fluorescence in the first five minutes, corresponding to the initial rate of reaction, was divided by the rise in fluorescence in the standard reaction without antibiotic, containing the active state of the ribozyme (see also FIG. 10).
[…]. […] […].

AIR = assay: Dependence of AIR cleavage activity on Rev (FRET ribozyme reaction); type: biochemical; details: for EC50: read-out: Kact (activation of AIR)
Protocol: (§5) Negative control reactions without ribozymes were subtracted.
as §3

RRR = assay: Dependence of RRR cleavage activity on Rev (FRET ribozyme reaction); type: biochemical; details: for IC50: read-out: K inh (inhibition of RRR at the half maximal concentration of Rev)
Protocol: as §5, §3

hammerhead ribozyme HHR = assay: HHR cleavage reaction (internal control, FRET); type: biochemical
Protocol: as §3, §4

Rev peptide = biological target: T3, Rev peptide (Human immunodeficiency virus type 1 group M subtype B, UniProt P04618); assay: Surface plasmon resonance, Rev peptide; type: binding, HIV; details: 100 μM antibiotic, 25° C.
T3 construct: includes aminoacids 34 to 50 of the Rev protein
Protocol: as §1, §2

RRR-RNA = assay: Surface plasmon resonance, RRR-RNA surface; type: binding; details: 100 μM antibiotic, 25° C.
Protocol: 20 μl 100 μM antibiotic in test buffer was injected at 25° C., rate 10 μl/s. […] There is no binding to RRR-derivatized surfaces detectable. Coumermycin only binds to Rev, but not to ribozymes. FIG. 13b illustrates the interaction between novobiocin, rosamicin, griseofulvin, streptolydigin and patulin with surfaces derivatized with Rev protein.
Surface plasmon resonance studies were performed with a Biocore 3000 instrument in the automatic mode. Rev protein and peptide surfaces were prepared by injection of 100 μM solutions in 60 mM NaOAc, pH 5.7 on EDC/NHS-activated CM5-Chips, which gave 1800 RU immobilized peptide and 5000 RU protein.

Rev peptide / RRR = biological target: T4, Rev peptide / RRR (Human immunodeficiency virus type 1 group M subtype B, UniProt P04618); assay: RRR screen (screen 1) of antibiotics: restoration of cleavage activity; type: biochemical, HIV; details: 100 μM, 1 μM Rev-peptide
T4 construct: includes aminoacids 34 to 50 of the Rev protein
Protocol: as §3, with “Negative controls were always included for reactions without ribozyme and were subtracted after the measurements.” left out
Two different screening experiments were performed, one using the RRR reporter construct and the other using AIR. […] After subtraction of the negative control, the rise in fluorescence in the first five minutes, corresponding to the initial rate of reaction, was divided by the rise in fluorescence in the standard reaction without antibiotic, containing the active state of the ribozyme (see also FIG. 10). […]

Rev protein [2] = biological target: T5, Rev protein (HIV-1, UniProt P04618 P04618:1-116); assay: cleavage_in_vitro; K act of ribozyme; 8 mM MgCl2, 32 C; details: tags: full-length
Rev protein [3] = biological target: T5, Rev protein; assay: competition; 2 uM RNA competes with IRK-1 for 200 nM Rev; 10 mM HEPES pH 7.4, 100 mM NaCl, 10 mM MgCl2; details: tags: full-length
Rev protein [4] = biological target: Rev protein (HIV-1, UniProt P04618 P04618:1-116); assay: inhibition; K inh of ribozyme; 8 mM MgCl2, 32 C; details: tags: full-length; label: biotin (SPR surface) or 5'-32P (filter); hammerhead ribozyme

Nc1ccn([C@H]2CC[C@@H](COP(=O)(O)OP(=O)(O)OP(=O)(O)O)O2)c(=O)n1 [ddCTP]
inhibition of reverse transcriptase (reverse transcriptase): total inhibition

COC1=CC(=O)C[C@@H](C)[C@]12Oc1c(Cl)c(OC)cc(OC)c1C2=O [griseofulvin]
binding to surface derivatized with Rev protein (Rev protein [1]): Only the antibiotics novobiocin and patulin, which were identified in the course of screening, exhibited binding to Rev

C=C(NC(=O)c1csc(-c2nc3c(cc2O)-c2nc(cs2)C(=O)NC(C(C)O)C(=O)N/C(=C\C)c2nc(cs2)C(=O)NC2CC(O)C(=O)OCc4cccc5[nH]c(c(C)c45)C(=O)SCC(NC(=O)c4csc2n4)c2nc-3cs2)n1)C(N)=O (centres unmarked) [nosiheptide]
AIR screen outcome (inhibition of AIR relative to HHR) (Rev peptide / AIR): Rev inhibitors

CO[C@@H]1[C@@H](OC(N)=O)[C@@H](O)[C@H](Oc2ccc3c(O)c(NC(=O)c4ccc(O)c(CC=C(C)C)c4)c(=O)oc3c2C)OC1(C)C [novobiocin]
binding to surface derivatized with Rev protein (Rev protein [1]): exhibited binding

O=C1C=C2C(=CCOC2O)O1 (centres unmarked) [patulin]
binding to surface derivatized with Rev protein (Rev protein [1]): exhibited binding | AIR screen outcome (inhibition of AIR relative to HHR) (Rev peptide / AIR): Rev inhibitors

CC[C@H]1OC(=O)C[C@@H](O)[C@H](C)[C@@H](O[C@@H]2O[C@H](C)C[C@H](N(C)C)[C@H]2O)[C@@H](CC=O)C[C@@H](C)C(=O)/C=C/[C@]2(C)O[C@H]2[C@@H]1C [rosamicin]
binding to surface derivatized with Rev protein (Rev protein [1]): Only the antibiotics novobiocin and patulin, which were identified in the course of screening, exhibited binding to Rev

CNC(=O)[C@@H](C)[C@H]1C(=O)/C(=C(O)/C=C/C(C)=C/[C@@H](C)[C@H]2O[C@@]3(C)O[C@H](C=C[C@@]34CO4)[C@@H]2C)C(=O)N1[C@@H]1CC[C@H](O)[C@H](C)O1 [streptolydigin]
binding to surface derivatized with Rev protein (Rev protein [1]): Only the antibiotics novobiocin and patulin, which were identified in the course of screening, exhibited binding to Rev

Rev peptide: Rev peptide, which includes aminoacids 34 to 50 of the Rev protein (TRQARRNRRRRWRERQR; UniProt P04618 34-50, looked up, fragment)
concentration above which AIR is inhibited (AIR): above 800 nM | effect of Rev on AIR (AIR; 250 nM Rev): activation | EC50 (AIR): 0.17 µM | effect of Rev on ribozyme RRR (RRR; 1 μM Rev-peptide): inhibition | IC50 (RRR; Rev peptide): 0.464 µM | concentration above which HHR is inhibited (hammerhead ribozyme HHR): more than 1 μM | initial activity of HHR (hammerhead ribozyme HHR; 1 μM Rev): 93% | effect of Rev on wildtype HHR (hammerhead ribozyme HHR; 1 μM Rev-peptide): hardly affected | concentration above which HHR is inhibited (hammerhead ribozyme HHR; listed as Rev): above 1 μM

Rev protein: intact Rev protein of HIV
concentration at which AIR is still activated (AIR): above 5 μM | inhibition of AIR by high concentrations (AIR): no observed inhibition | EC50 (AIR): 0.192 µM | concentration above which RRR is inhibited (RRR): above 1 μM | IC50 (RRR; Rev protein): 1.7 µM

coumermycin A1
binding to surface derivatized with Rev peptide (Rev peptide): binding | binding to surface derivatized with Rev protein (Rev protein [1]): binding | binding to RRR-derivatized surface (RRR-RNA): no binding | AIR screen outcome (inhibition of AIR relative to HHR) (Rev peptide / AIR): Rev inhibitors | reversal of the action of Rev on AIR (Rev peptide / AIR; 100 μM, 250 nM Rev): fully reversed | reversal of the action of Rev on RRR (Rev peptide / RRR): fully reversed | effect on wildtype HHR (hammerhead ribozyme HHR; 100 μM with 1 μM Rev-peptide): hardly affected

B1: AIR (aptamer-inhibited ribozyme) (ssRNA)
RNA: GGGACUCGCUUCGGCUUGAGAUACCAAAAAGGGUCCUCUGAUGAGGCCGUUAGGCCGAAACUCGU
apparent K (half saturation) (Rev protein [2]): 192 nM

GGGAGGUGGACUCCAGCUUCGGCUGUUGAGAUACACC (ssRNA) [Seq 5]
binding result (Rev protein [3]): binds

B2: RRR (Rev-responsive ribozyme, RBE in stem II) (ssRNA)
RNA: GGGUCCUCUGAUGAGCUCUGGGCGCAGCUUCGGCUGACGGUACUUGCGAAACUCGU
apparent K (half saturation) (Rev protein [4]): 1700 nM
